Assay results taken from patent publication US20240382403A1, “COSMETIC, DERMATOLOGICAL OR COSMECEUTICAL TREATMENT, IN PARTICULAR PROPIGMENTING” (Sederma, priority 2021, published 2024).

Tests used:
[1] = system: normal human melanocytes (NHM); assay: Melanin production by NHM without UV induction (spectrophotometry); assay type: cell-based; settings: for increase in pigmentation of NHM vs. control: 16 ppm; for melanin production by NHM, Variation (%) vs control / Melanin: n = 4; for Melanin Variation (%) vs control / Melanin: 10 days contact; for Melanin: without UV induction
Description: (§1) NHM are cultivated and placed in contact with the product according to the invention for 10 days. At the end of this contact period, the mats are ground and the melanin is extracted from the cells. The quantity of melanin is assessed by spectrophotometry, using a standard range established previously from a melanin solution and compared to the control. A protein assay using the bicinchoninic acid (BCA) method is performed to estimate the quantity of cells and to standardise the obtained data.
The tests were carried out on NHM, the protocol being the same to the one above of point a)
The protocol is the same as that of point a) above.

HaCaT keratinoctes [2] = assay: Hyaluronic acid production by keratinocytes (ELISA); assay type: cell-based; settings: 3 days; for Hyaluronic acid: n = 4
Description: (§2) HaCaT keratinoctes are seeded and cultured and, once at sub-confluence, receive the tyrosine derivative according to the invention, or its solvent, at different concentrations for 3 days. At the end of this period, the media are collected for hyaluronic acid and laminin assays using ELISA methods. The cell concentration is estimated using the Hoescht method.

[3] = system: Normal human keratinocytes (NHK); assay: NHK phagocytosis of fluorescent microbeads mimicking melanosomes; assay type: cell-based; settings: for Phagocytosis (μbeas: (Total Area/1000)): 24 h treatment then beads 3 h, n = 4
Description: Normal human keratinocytes (NHK) are seeded and cultured and, once at 50% sub-confluence, receive the tyrosine derivative according to the invention, or its solvent, at different concentrations for 24 h. At the end of this period, the cells receive the fluorescent microbeads mimicking melanosomes for 3 h. Then, the cells are rinsed to remove excess beads, and the mats are visualized under a fluorescence microscope to quantify phagocytosis. The cell concentration is estimated using the Hoescht method.

keratinocytes [4] = assay: IL6 in keratinocytes with UVB (ELISA); assay type: cell-based; settings: for IL6 with UVB irradiation: n = 2
Description: (§3) Keratinocytes are seeded and cultured and, once at sub-confluence, receive the tyrosine derivative according to the invention, or its solvent, at different concentrations. After 24 hours, the cells are rinsed and then exposed to UVB, and the cells are then re-treated with the media containing the tyrosine derivative according to the invention at different concentrations for 24 hours. Other cases are not exposed. The culture media are assayed for PGE2, IL6 and IL8 using ELISA methods. The number of cells was estimated using the Hoescht method.

B16 mouse pigment cells [5] = assay: Number of cells in the B16 melanin test; assay type: cell-based; settings: tested concentrations 5.5 and 11 ppm
Description: as §1
(§4) B16 mouse pigment cells are cultivated and placed in contact with the product according to the invention for 2 days. For this type of cells, tyrosinase is also assayed. Tyrosinase is the first enzyme in the chain of melanogenesis, changing tyrosine to DOPA-quinone.

fibroblasts = assay: PGE2 in fibroblasts with or without UVB (ELISA); assay type: cell-based; settings: for PGE2 with UVB irradiation / PGE2 without irradiation: n = 3
Description: as §3
The same protocol is applied in parallel to Fibroblasts.

NHM [6] = assay: Number of cells (BCA protein assay) in the NHM melanin test; assay type: cell-based, human; settings: tested concentrations 5.5 and 11 ppm
Description: as §1

keratinocytes [7] = assay: IL8 in keratinocytes with UVB (ELISA); assay type: cell-based; settings: for IL8 with UVB irradiation: n = 2
Description: as §3

Tyrosinase = Tyrosinase activity by B16 mouse pigment cells; assay type: cell-based; settings: 2 days contact; for Tyrosinase: n = 4
Description: as §4

HaCaT keratinoctes [8] = assay: Laminin production by keratinocytes (ELISA); assay type: cell-based; settings: 3 days; for Laminin: n = 4
Description: as §2

B16 mouse pigment cells [9] = assay: Melanin production by B16 mouse pigment cells; assay type: cell-based; settings: 2 days contact; for Melanin: n = 4
Description: as §1, §4

keratinocytes [10] = assay: PGE2 in keratinocytes with or without UVB (ELISA); assay type: cell-based; settings: for PGE2 with UVB irradiation / PGE2 without irradiation: n = 3
Description: as §3

NHM [11] = assay: Pigmentation of NHM, microscopic observation by expert; assay type: cell-based, human; settings: 10 days
Description: NHM are cultivated and placed in contact with the product according to the invention for 10 days. At the end of this contact period, cells are observed with a microscope and variation of pigmentation of cells versus control is evaluated by an expert.

[12] = 12.5 μM (5.5 ppm of N-Palmitoyl-O-methyl-L-Tyrosine, 5.25 ppm of N-Palmitoyl-L-Tyrosine)
[13] = 25 μM (11 ppm of N-Palmitoyl-O-methyl-L-Tyrosine, 10.5 ppm of N-Palmitoyl-L-Tyrosine)

CCCCCCCC/C=C\CCCCCCCCN[C@@H](Cc1ccc(O)cc1)C(=O)O [oleyl tyrosine, reference compound]
increase in pigmentation of NHM vs. control ([1]; NHM): 9%
increase in NHM pigmentation vs. control ([1]; NHM, approximately 3 times more oleyl tyrosine applied than 16 ppm): +35%

CCCCCCCCCCCCCCCC(=O)N[C@@H](Cc1ccc(OC)cc1)C(=O)O [N-Palmitoyl-O-methyl-L-Tyrosine]
Hyaluronic acid Variation (%) vs control (HaCaT keratinoctes [2]; 1.375 ppm): +35%; p < 0.01
Hyaluronic acid (HaCaT keratinoctes [2]; 1.375 ppm): 402 +/− 35 ng/10^6 cell.
Hyaluronic acid Variation (%) vs control (HaCaT keratinoctes [2]; 2.75 ppm): +31%; p < 0.01
Hyaluronic acid (HaCaT keratinoctes [2]; 2.75 ppm): 391 +/− 25 ng/10^6 cell.
Phagocytosis Variation (%) vs control ([3]; 5.5 ppm): +71%; p < 0.01
Phagocytosis Variation (%) vs control ([3]; 11 ppm): +129%; p < 0.01
Phagocytosis (μbeas: (Total Area/1000)) ([3]; 5.5 ppm): 6599 +/− 1115 Total Area/1000
Phagocytosis (μbeas: (Total Area/1000)) ([3]; 11 ppm): 9910 +/− 1161 Total Area/1000
IL6 with UVB irradiation Variation (%) vs control (keratinocytes [4]; 5.5 ppm): −43%; p < 0.01
IL6 with UVB irradiation (keratinocytes [4]; 5.5 ppm): 880 +/− 142 ng/10^6 cell.
IL6 with UVB irradiation Variation (%) vs control (keratinocytes [4]; 11 ppm): −45%; p < 0.01
IL6 with UVB irradiation (keratinocytes [4]; 11 ppm): 853 +/− 115 ng/10^6 cell.
melanin production by NHM, Variation (%) vs control [1, 12]: +50%; p < 0.01
melanin production by NHM, Variation (%) vs control [1, 13]: +86%; p < 0.01
increase in pigmentation of NHM vs. control ([1]; NHM): 52%
Melanin Variation (%) vs control ([1]; NHM, 5.5 ppm): +50%; p < 0.01
Melanin ([1]; NHM, 5.5 ppm): 404 +/− 42 μg/mL/10^6 cell.
Melanin Variation (%) vs control ([1]; NHM, 11 ppm): +86%; p < 0.01
Melanin ([1]; NHM, 11 ppm): 501 +/− 41 μg/mL/10^6 cell.
number of cells / toxicity (B16 mouse pigment cells [5]): neither toxic nor multiplication activator
PGE2 without irradiation Variation (%) vs control (fibroblasts; 5.5 ppm): −32%; p < 0.01
PGE2 with UVB irradiation (fibroblasts; 5.5 ppm): 7332 +/− 478 ng/10^6 cell.
PGE2 without irradiation (fibroblasts; 5.5 ppm): 7420 +/− 422 ng/10^6 cell.
PGE2 with UVB irradiation Variation (%) vs control (fibroblasts; 5.5 ppm, non significant data): −19%; nsd*
PGE2 with UVB irradiation Variation (%) vs control (fibroblasts; 11 ppm): −33%; p < 0.01
PGE2 without irradiation Variation (%) vs control (fibroblasts; 11 ppm): −41%; p < 0.01
PGE2 with UVB irradiation (fibroblasts; 11 ppm): 6117 +/− 735 ng/10^6 cell.
PGE2 without irradiation (fibroblasts; 11 ppm): 6470 +/− 311 ng/10^6 cell.
number of cells / toxicity (NHM [6]): neither toxic nor multiplication activator
IL8 with UVB irradiation Variation (%) vs control (keratinocytes [7]; 5.5 ppm): −42%; p < 0.01
IL8 with UVB irradiation (keratinocytes [7]; 5.5 ppm): 4.3 +/− 0.7 ng/10^6 cell.
IL8 with UVB irradiation Variation (%) vs control (keratinocytes [7]; 11 ppm): −90%; p < 0.01
IL8 with UVB irradiation (keratinocytes [7]; 11 ppm): 0.7 +/− 0 ng/10^6 cell.
Tyrosinase Variation (%) vs control (Tyrosinase; 5.5 ppm): +9.7%; p < 0.01
Tyrosinase (Tyrosinase; 5.5 ppm): 2.8 +/− 0 U/1000 μg protein
Tyrosinase Variation (%) vs control (Tyrosinase; 11 ppm): +20.5%; p < 0.01
Tyrosinase (Tyrosinase; 11 ppm): 3.1 +/− 0 U/1000 μg protein
Laminin Variation (%) vs control (HaCaT keratinoctes [8]; 2.75 ppm): +33%; p < 0.01
Laminin (HaCaT keratinoctes [8]; 2.75 ppm): 88 +/− 3 ng/10^6 cell.
Laminin Variation (%) vs control (HaCaT keratinoctes [8]; 5.5 ppm): +69%; p < 0.01
Laminin (HaCaT keratinoctes [8]; 5.5 ppm): 111 +/− 9 ng/10^6 cell.
Melanin Variation (%) vs control (B16 mouse pigment cells [9]; 5.5 ppm): +26%; p < 0.01
Melanin (B16 mouse pigment cells [9]; 5.5 ppm): 171.1 +/− 2.3 μg/mL/10^6 cell.
Melanin Variation (%) vs control (B16 mouse pigment cells [9]; 11 ppm): +62%; p < 0.01
Melanin (B16 mouse pigment cells [9]; 11 ppm): 220.7 +/− 8.7 μg/mL/10^6 cell.
PGE2 with UVB irradiation Variation (%) vs control (keratinocytes [10]; 5.5 ppm): −62%; p < 0.01
PGE2 without irradiation Variation (%) vs control (keratinocytes [10]; 5.5 ppm): −60%; p < 0.01
PGE2 with UVB irradiation (keratinocytes [10]; 5.5 ppm): 101 +/− 7 ng/10^6 cell.
PGE2 without irradiation (keratinocytes [10]; 5.5 ppm): 51 +/− 5 ng/10^6 cell.
PGE2 with UVB irradiation Variation (%) vs control (keratinocytes [10]; 11 ppm): −73%; p < 0.01
PGE2 without irradiation Variation (%) vs control (keratinocytes [10]; 11 ppm): −58%; p < 0.01
PGE2 with UVB irradiation (keratinocytes [10]; 11 ppm): 72 +/− 3 ng/10^6 cell.
PGE2 without irradiation (keratinocytes [10]; 11 ppm): 54 +/− 5 ng/10^6 cell.

CCCCCCCCCCCCCCCC(=O)N[C@@H](Cc1ccc(O)cc1)C(=O)O [N-Palmitoyl-L-Tyrosine, reference compound]
Variation of pigmentation of cells versus control (expert grade) (NHM [11]; 12.5 μM): 0
Variation of pigmentation of cells versus control (expert grade) (NHM [11]; 25 μM): 0
melanin production by NHM, Variation (%) vs control [1, 12]: +7%; dns
melanin production by NHM, Variation (%) vs control [1, 13]: +10%; dns
